Measurements published in US20240051931A1, “HDAC INHIBITORS” (University of Pittsburgh - Of the Commonwealth System of …, priority 2020, published 2024).

Compared with `O=C(NCc1ccccc1)Nc1cccc2c1OC(C(=O)NO)CC2` (stereo not drawn) [Compound 11e, 8-(3-Benzylureido)-N-hydroxychromane-2-carboxamide], `O=C(Nc1cccc2c1O[C@H](C(=O)NO)CC2)OCc1ccccc1Cl` [−11L, 2-Chlorobenzyl (S)-(2-(hydroxycarbamoyl)chroman-8-yl)carbamate] is lower in melting point: 187 to 190 °C for the first, 176 to 178 °C for the second.

Compared with `O=C(Nc1cccc2c1OC(C(=O)NO)CC2)OCc1ccc(C(F)(F)F)cc1` (stereo not drawn) [Compound 11f, 4-(Trifluoromethyl)benzyl (2-(hydroxycarbamoyl)chroman-8-yl)carbamate], `O=C(Nc1cccc2c1O[C@H](C(=O)NO)CC2)OCc1ccc(Cl)cc1` [Compound 11h, 4-Chlorobenzyl (S)-(2-(hydroxycarbamoyl)chroman-8-yl)carbamate] is higher in melting point: 102 to 104 °C for the first, 155 to 157 °C for the second.

First: COc1cccc(COC(=O)Nc2cccc3c2O[C@H](C(=O)NO)CC3)c1 [Compound 11g, 3-methoxybenzyl (S)-(2-(hydroxycarbamoyl)chroman-8-yl)carbamate]
Second: COc1ccc(COC(=O)Nc2ccc3c(c2)CCC(C(=O)NO)O3)cc1 (stereo not drawn) [Compound 14j, 4-Methoxybenzyl (2-(hydroxycarbamoyl)chroman-6-yl)carbamate]
The melting point of the first is lower: 71 to 73 °C for the first, 149 to 151 °C for the second.

First: O=C(NO)C1CCc2cccc(NS(=O)(=O)c3ccc(F)cc3)c2O1 (stereo not drawn) [Compound 11m, 8-((4-Fluorophenyl)sulfonamido)-N-hydroxychromane-2-carboxamide]
Second: Cc1ccc(S(=O)(=O)Nc2cccc3c2OC(C(=O)NO)CC3)cc1 (stereo not drawn) [Compound 11p, N-Hydroxy-8-((4-methylphenyl)sulfonamido)chromane-2-carboxamide]
The melting point of the first is higher: 237 to 239 °C for the first, 235 to 237 °C for the second.

First: O=C(NO)C1CCc2cccc(NS(=O)(=O)c3cccc4ccccc34)c2O1 (stereo not drawn) [Compound 11n, N-Hydroxy-8-(naphthalene-1-sulfonamido)chromane-2-carboxamide]
Second: CS(=O)(=O)Nc1cccc2c1OC(C(=O)NO)CC2 (stereo not drawn) [Compound 11o, N-Hydroxy-8-(methylsulfonamido)chromane-2-carboxamide]
The melting point of the first is higher: 219 to 221 °C for the first, 181 to 183 °C for the second.

First: O=C(Nc1ccc2c(c1)CCC(C(=O)NO)O2)c1ccc(S(F)(F)(F)(F)F)cc1 (stereo not drawn) [Compound 14c, N-Hydroxy-6-(4-(pentafluoro-λ^6-sulfaneyl)benzamido)chromane-2-carboxamide]
Second: O=C(Nc1ccc2c(c1)CCC(C(=O)NO)O2)OCc1ccccc1Cl (stereo not drawn) [Compound 14k, 2-Chlorobenzyl (2-(hydroxycarbamoyl)chroman-6-yl)carbamate]
The melting point of the first is higher: 214 to 216 °C for the first, 188 to 189 °C for the second.

Compared with `O=C(NCc1ccc(Cl)c(C(F)(F)F)c1)Nc1cccc2c1OC(C(=O)NO)CC2` (stereo not drawn) [Compound 14i, 8-(3-(4-Chloro-3-(trifluoromethyl)benzyl)ureido)-N-hydroxychromane-2-carboxamide], `O=C(NO)C1CCc2ccc(OCc3ccc(C(F)(F)F)cc3)cc2O1` (stereo not drawn) [Compound 50a, N-Hydroxy-7-((4-(trifluoromethyl)benzyl)oxy)chromane-2-carboxamide] is lower in melting point: 195 to 197 °C for the first, 148 to 151 °C for the second.

First: O=C(NO)C1CCc2cc(NS(=O)(=O)c3cc(Cl)cc(Cl)c3)ccc2O1 (stereo not drawn) [Compound 14n, 6-((3,5-Dichlorophenyl)sulfonamido)-N-hydroxychromane-2-carboxamide]
Second: O=C(NO)C1CCc2cc(-c3ccc(Cl)c(Cl)c3)ccc2O1 (stereo not drawn) [Compound 44c, 6-(3,4-Dichlorophenyl)-N-hydroxychromane-2-carboxamide]
The melting point of the first is higher: 156 to 170 °C for the first, 89 to 91 °C for the second.

`C#Cc1ccc2c(c1)CCC(C(=O)NO)O2` (stereo not drawn) [Compound 19, 6-ethynyl-N-hydroxychromane-2-carboxamide] and `O=C(NO)C1CCc2cc(Cl)ccc2O1` (stereo not drawn) [Compound 90, 6-Chloro-N-hydroxychromane-2-carboxamide] cannot be ordered by melting point: 161 to 163 °C for the first, 160 to 162 °C for the second.

First: O=C(NO)C1CCc2cc(C#CCOc3ccc(F)cc3)ccc2O1 (stereo not drawn) [Compound 25, 6-(3-(4-Fluorophenoxy)prop-1-yn-1-yl)-N-hydroxychromane-2-carboxamide]
Second: O=C(NO)C1CCc2cc(CCCOc3ccc(F)cc3)ccc2O1 (stereo not drawn) [Compound 31, 6-(3-(4-Fluorophenoxy)propyl)-N-hydroxychromane-2-carboxamide]
The melting point of the first is higher: 149 to 151 °C for the first, 145 to 147 °C for the second.

Compared with `O=C(NO)C1CCc2cc(C#CCOC(=O)N3CCc4ccccc4C3)ccc2O1` (stereo not drawn) [Compound 36, 3-(2-(Hydroxycarbamoyl)chroman-6-yl)prop-2-yn-1-yl 3,4-dihydroisoquinoline-2(1H)-carboxylate], `O=C(NO)C1CCc2cc(CCCOC(=O)N3CCc4ccccc4C3)ccc2O1` (stereo not drawn) [Compound 40, 3-(2-(Hydroxycarbamoyl)chroman-6-yl)propyl 3,4-dihydroisoquinoline-2(1H)-carboxylate] is lower in melting point: 90 to 92 °C for the first, 82 to 84 °C for the second.

Compared with `O=C(NO)C1CCc2cc(-c3ccc(-c4ccccc4)cc3)ccc2O1` (stereo not drawn) [Compound 44a, 6-([1,1′-Biphenyl]-4-yl)-N-hydroxychromane-2-carboxamide], `O=C(NO)C1CCc2cc(-c3ccc(F)cc3)ccc2O1` (stereo not drawn) [Compound 44b, 6-(4-Fluorophenyl)-N-hydroxychromane-2-carboxamide] is lower in melting point: 218 to 219 °C for the first, 177 to 179 °C for the second.

Compared with `O=C(NO)C1CCc2ccc(OCCOc3ccc(F)cc3)cc2O1` (stereo not drawn) [Compound 50b, 7-(2-(4-Fluorophenoxy)ethoxy)-N-hydroxychromane-2-carboxamide], `COc1ccc(-c2ccc3c(c2)OC(C(=O)NO)CC3)cc1` (stereo not drawn) [Compound 58c, N-Hydroxy-7-(4-methoxyphenyl)chromane-2-carboxamide] is higher in melting point: 144 to 147 °C for the first, 181 to 183 °C for the second.

First: O=C(NO)C1CCc2ccc(OCc3ccccn3)cc2O1 (stereo not drawn) [Compound 50c, N-Hydroxy-7-(pyridin-2-ylmethoxy)chromane-2-carboxamide]
Second: O=C(NO)[C@@H]1CCc2ccc(OCc3ccccc3Cl)cc2O1 [Compound 50d, (S)-7-((2-Chlorobenzyl)oxy)-N-hydroxychromane-2-carboxamide]
The melting point of the first is lower: 125 to 128 °C for the first, 141 to 147 °C for the second.

Compared with `O=C(NO)C1CCc2ccc(O)cc2O1` (stereo not drawn) [Compound 55, N,7-Dihydroxychromane-2-carboxamide], `O=C(NO)C1CCc2ccc(-c3ccc(Cl)c(Cl)c3)cc2O1` (stereo not drawn) [Compound 58a, 7-(3,4-Dichlorophenyl)-N-hydroxychromane-2-carboxamide] is lower in melting point: 174 to 176 °C for the first, 167 to 169 °C for the second.

Compared with `Cn1ccc2cc(-c3ccc4c(c3)OC(C(=O)NO)CC4)ccc21` (stereo not drawn) [Compound 58b, N-Hydroxy-7-(1-methyl-1H-indol-5-yl)chromane-2-carboxamide], `CN1CC(C(=O)NO)Oc2ccccc21` (stereo not drawn) [Compound 78, N-Hydroxy-4-methyl-3,4-dihydro-2H-benzo[b][1,4]oxazine-2-carboxamide] is lower in melting point: 155 to 158 °C for the first, 118 to 120 °C for the second.

For `CC(C)NC(=O)ONC(=O)C1CCc2cc(NC(=O)c3ccc(-c4ccccc4)cc3)ccc2O1` (stereo not drawn) [Compound 15, 6-([1,1′-Biphenyl]-4-carboxamido)-N-((isopropylcarbamoyl)oxy)chromane-2-carboxamide], the melting point was 200 °C (dec.).
